How the values were obtained:
[1] = tested on: Scopolamine Induced Memory Deficit; assay: Dark Avoidance Assay (reversal of scopolamine induced memory deficit); type: in vivo; conditions: mice
Description: In this assay, mice are tested for their ability to remember an unpleasant stimulus for a period of 24 hours. A mouse is placed in a chamber that contains a dark compartment; a strong incandescent light drives it to the dark compartment, where an electric shock is administered through metal plates on the floor. The animal is removed from the testing apparatus and tested again, 24 hours later, for the ability to remember the electric shock.

[2] = tested on: phenyl-para-quinone writhing; assay: phenyl-para-quinone writhing assay in mice (analgesia); type: in vivo
From the text: The compounds of the present invention are useful as analgesic agents. […] Exptl. Biol. Med., 95, 729 (1957)].

[3] = tested on: ear edema induced by topical application of TPA; assay: TPA-Induced Ear Edema (TPAEE); type: in vivo, Female Swiss Webster mice; conditions: for TPAEE (change in TPA-induced ear edema): 10 μg/ear topical, TPA 10 μg/ear, five hours
Description: The purpose of this assay was to determine the ability of a topically-applied compound to prevent ear edema induced by topical application of TPA (phorbol 12-myristate acetate). Female Swiss Webster mice topically received TPA (10 μg/ear) on the right ear and vehicle on the left ear. The test compound (10 μg/ear) was applied to both ears. After five hours, the animals were sacrificed and an ear punch (4 mm) was taken from each ear. The difference in right and left ear punch weights for each animal was determined to assess activity. […] See Young, J. M. et al., J. Invest. Dermatol., 80 (1983), pp. 48-52.

In the case of `CNC(=O)Oc1ccc2c(c1)[C@]1(C)CCN(C)[C@@H]1N2C` [Physostigmine, reference compound], the “% of Animals with Scopolamine Induced Memory Deficit Reversal” value (“% of Animals” below) ([1]; 0.31 mg/kg s.c., 24 hours (reference)) is reported as 20%.
In the case of `Nc1ccncc1-c1noc2ccccc12.O=C(O)/C=C\C(=O)O` [3-(1,2-Benzisoxazol-3-yl)-4-pyridinamine maleate], the “% Inhibition of Writhing” value ([2]; 20 mg/kg of body wt. s.c., mice) is reported as 40%, the “TPAEE (change in TPA-induced ear edema)” value [3] is reported as -29% and the “% of Animals” value ([1]; 1.0 mg/kg s.c., 24 hours) is reported as 21%. For the same compound, the “% of Animals” value ([1]; 10.0 mg/kg s.c., 24 hours) was 33%.
`CC(C)(C)C(=O)Nc1ccncc1-c1noc2ccccc12` [N-[3-(1,2-Benzisoxazol-3-yl)-4-pyridinyl]-2,2-dimethylpropanamide] was tested, and the “TPAEE (change in TPA-induced ear edema)” value [3] was -23% and the “% of Animals” value ([1]; 3.0 mg/kg s.c., 24 hours) was 20%.
`CCC(=O)O[C@](Cc1ccccc1)(c1ccccc1)[C@H](C)CN(C)C` [Propoxyphene, reference compound] was tested, and the “% Inhibition of Writhing” value ([2]; 3.9 mg/kg of body wt. s.c., mice (standard)) was 50%.
In the case of `C[C@]12CCC(=O)C=C1CC[C@@H]1[C@@H]2[C@@H](O)C[C@@]2(C)[C@H]1CC[C@]2(O)C(=O)CO` [hydrocortisone, reference compound], the “ED50 (TPA-induced ear edema)” value ([3]; standard, topical, mice) is reported as 47 μg/ear.
